Consider 15 compounds from US11267824B2, “Inhibitors of indoleamine 2,3-dioxygenase and/or tryptophan 2,3-dioxygenase” (IDORSIA PHARMACEUTICALS LTD, priority 2017, dated 2022).

The target in test [1] is Recombinant human TDO comprising amino acids 19-407 (Homo sapiens (Human), UniProt P48775). In words: TDO2 enzymatic assay (TDO inhibitory activity). It is filed as biochemical. The settings on record: 15 nM enzyme, 200 μM L-tryptophan, pH7, 30 min pre-incubation, NFK quantified by LCMS; mean values if measured multiple times; read-out: hTDO activity (IC50 in nM). As to the method: 2) Testing Compounds for TDO Inhibitory Activity in a TDO2 Enzymatic Assay:
Recombinant human TDO comprising amino acids 19-407 with a N-terminal hexahistidine tag expressed in E. coli and purified to homogeneity is incubated at a final concentration of 15 nM in assay buffer consisting of 75 mM phosphate buffer at pH7 supplemented with 100 μM ascorbic acid, 50 U/ml Catalase, 0.01% BSA, and 0.01% Tween 20 (protocol modified from Seegers et al, JBS 2014). Example compounds are serially diluted in DMSO, further diluted in phosphate buffer, and added to the reaction mixture at final concentrations ranging from 10 μM to 0.5 nM. The final DMSO concentration is 0.6%. Following a pre-incubation of 30 minutes at RT, the reaction is started by the addition of L-tryptophan at a final concentration of 200 μM in assay buffer. After 30 minutes of incubation at RT, 3 μL of the reaction mixture are transferred to a 384 deep well plate containing 25 μL of deionized water. 100 μl of 200 nM L-Tryptophan-(indole-d5) in cold 100% methanol are added followed by a 10 minutes centrifugation at 4,000 rpm at 4° C. An additional 75 μL of deionized water are then added and followed by a 10 minutes centrifugation at 4,000 rpm at 4° C. The product of the reaction N′-Formylkynurenine (NFK) is quantified by LCMS and normalized to the L-Tryptophan-(indole-d5) signal. Samples with 0.6% DMSO (0% effect) and a TDO/IDO inhibitor (100% effect) are used as control samples to set the parameters for the non-linear regression necessary for the determination of the half-maximal inhibitory concentration (IC50) for each compound. For each compound concentration the percentage of activity compared to 0% and 100% effect is calculated as average±STDEV (each concentration measured in duplicate). IC50 values and curves are generated with XLfit software (IDBS) using Dose-Response One Site model 203 (four parameter logistic curve model). When compounds are measured multiple times, mean values are given.

The target of test [2] is Recombinant full-length human IDO1 (Homo sapiens (Human), UniProt P14902). In words: IDO1 enzymatic assay (IDO inhibitory activity). It is filed as biochemical. The settings on record: 2 nM enzyme, 5 μM L-tryptophan, pH6.5, 30 min pre-incubation, NFK quantified by LCMS; mean values if measured multiple times; read-out: hIDO activity (IC50 in nM). The procedure: 1) Testing Compounds for IDO Inhibitory Activity in an IDO1 Enzymatic Assay:
Recombinant full-length human IDO1 with a N-terminal hexahistidine tag expressed in E. coli and purified to homogeneity is incubated at a final concentration of 2 nM in assay buffer consisting of 37.5 mM phosphate buffer at pH6.5 supplemented with 10 mM sodium L-ascorbate, 0.45 μM methylene blue, 50 U/ml catalase, 0.01% BSA, and 0.01% Tween 20 (protocol modified from Seegers et al, JBS 2014). Example compounds are serially diluted in DMSO, further diluted in phosphate buffer, and added to the enzyme at final concentrations ranging from 10 μM to 0.5 nM. The final DMSO concentration is 0.6%. Following a pre-incubation of 30 minutes at RT, the reaction is started by the addition of L-tryptophan at a final concentration of 5 μM in assay buffer. After 30 minutes of incubation at RT, 3 μL of the reaction mixture are transferred to a 384 deep well plate containing 25 μL of deionized water. 100 μl of 200 nM L-Tryptophan-(indole-d5) in cold 100% methanol are added followed by a 10 minutes centrifugation at 4,000 rpm at 4° C. An additional 75 μL of deionized water are then added and followed by a 10 minutes centrifugation at 4,000 rpm at 4° C. The product of the reaction N′-Formylkynurenine (NFK) is quantified by LCMS and normalized to the L-Tryptophan-(indole-d5) signal. Samples with 0.6% DMSO (0% effect) and a TDO/IDO inhibitor (100% effect) are used as control samples to set the parameters for the non-linear regression necessary for the determination of the half-maximal inhibitory concentration (IC50) for each compound. For each compound concentration the percentage of activity compared to 0% and 100% effect is calculated as average ±STDEV (each concentration measured in duplicate). IC50 values and curves are generated with XLfit software (IDBS) using Dose-Response One Site model 203 (four parameter logistic curve model). When compounds are measured multiple times, mean values are given.

SMILES strings stand for the structures.

Recombinant human TDO comprising amino acids 19-407, sequence (P48775 19-406 limits assumed): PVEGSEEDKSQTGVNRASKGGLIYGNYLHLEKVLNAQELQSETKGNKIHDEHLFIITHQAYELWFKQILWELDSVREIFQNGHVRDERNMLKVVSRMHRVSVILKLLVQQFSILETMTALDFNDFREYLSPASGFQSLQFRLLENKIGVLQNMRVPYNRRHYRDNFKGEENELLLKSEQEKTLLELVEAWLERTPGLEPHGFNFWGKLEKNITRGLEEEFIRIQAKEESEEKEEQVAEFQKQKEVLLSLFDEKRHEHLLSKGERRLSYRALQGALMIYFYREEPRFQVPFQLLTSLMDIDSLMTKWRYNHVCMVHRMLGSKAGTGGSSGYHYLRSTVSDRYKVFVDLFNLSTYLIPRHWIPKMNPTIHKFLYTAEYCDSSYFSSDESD
Recombinant full-length human IDO1, sequence (P14902 whole entry): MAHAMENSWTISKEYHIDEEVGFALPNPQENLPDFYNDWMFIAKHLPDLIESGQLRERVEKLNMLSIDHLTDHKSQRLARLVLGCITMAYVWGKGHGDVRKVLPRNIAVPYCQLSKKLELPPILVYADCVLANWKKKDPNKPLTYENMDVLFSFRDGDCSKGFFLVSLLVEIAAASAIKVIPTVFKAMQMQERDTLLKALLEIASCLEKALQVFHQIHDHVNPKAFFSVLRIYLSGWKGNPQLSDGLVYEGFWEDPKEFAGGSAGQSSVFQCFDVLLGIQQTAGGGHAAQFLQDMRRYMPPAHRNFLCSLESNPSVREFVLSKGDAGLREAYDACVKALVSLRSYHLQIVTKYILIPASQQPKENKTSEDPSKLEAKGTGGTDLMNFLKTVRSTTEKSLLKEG

On to `OC(c1c(C2CC2)sc2cncn12)C1CCCC(C(F)(F)F)C1` (stereo not drawn) [Example 104, (2-Cyclopropyl-imidazo[5,1-b]thiazol-3-yl)-(3-trifluoromethyl-cyclohexyl)-methanol], for which the IC50 – broadly, the midpoint of a concentration-inhibition curve – in test [1] turned out to be 1080 nM; in test [2], 75.7 nM.

As to `CC1(CC(O)c2c(C3CC3)sc3cncn23)CCC1` (racemic) [Example 39, rac-1-(2-Cyclopropyl-imidazo[5,1-b]thiazol-3-yl)-2-(1-methyl-cyclobutyl)-ethanol], the half-maximal inhibitory concentration (IC50) in test [1] came to 300 nM; in test [2], 41.7 nM.

For the compound `Cc1cccc(C(O)c2c(C3CC3)sc3cncn23)c1` (racemic) [Example 52, rac-(2-Cyclopropyl-imidazo[5,1-b]thiazol-3-yl)-m-tolyl-methanol], the concentration for half-maximal inhibition (IC50) in test [1] worked out at 22.3 nM; in test [2], 64.8 nM.

`OC(c1ccsc1)c1c(C2CC2)sc2cncn12` (racemic) [Example 173, rac-(2-Cyclopropyl-imidazo[5,1-b]thiazol-3-yl)-thiophen-3-yl-methanol]: the half-maximal inhibitory concentration (IC50) turned out to be 1770 nM in test [1] and 77.3 nM in test [2].

Regarding `OC(c1ccccc1)c1c(C2CC2)sc2cncn12` (racemic) [Example 50, rac-(2-Cyclopropyl-imidazo[5,1-b]thiazol-3-yl)-phenyl-methanol], the half-maximal inhibitory concentration (IC50) in test [1] is 989 nM; in test [2] it was 50.5 nM.

As to `COc1cccc(CC(O)c2c(C)sc3cncn23)c1` (racemic) [Example 62, rac-2-(3-Methoxy-phenyl)-1-(2-methyl-imidazo[5,1-b]thiazol-3-yl)-ethanol], the 50% inhibitory concentration (IC50) in test [1] worked out at 7160 nM; in test [2], 3150 nM.

As for `OC(c1c(Cl)sc2cncn12)C1CCCCC1` (racemic) [Example 13, rac-(2-Chloroimidazo[5,1-b]thiazol-3-yl)(cyclohexyl)methanol], the IC50 in test [1] was determined as 172 nM; in test [2], 110 nM.

As to `CC(C)n1cc(C(O)c2c(C3CC3)sc3cncn23)nn1` (racemic) [Example 194, rac-(2-Cyclopropyl-imidazo[5,1-b]thiazol-3-yl)-(1-isopropyl-1H-[1,2,3]triazol-4-yl)-methanol], the values for the IC50 in test [1] and in test [2] were greater than 10200 nM and 304 nM, respectively.

Consider `Cc1sc2cncn2c1C(O)C1(C)CCCC1` (racemic) [Example 140, rac-(1-Methyl-cyclopentyl)-(2-methyl-imidazo[5,1-b]thiazol-3-yl)-methanol], for which the IC50 is 19.9 nM in test [1] and 30 nM in test [2].

Consider `Cc1sc2cncn2c1C(O)C1CCC(C)(C)C1` (stereo not drawn) [Example 141, (3,3-Dimethyl-cyclopentyl)-(2-methyl-imidazo[5,1-b]thiazol-3-yl)-methanol], for which the 50% inhibitory concentration (IC50) in test [1] is 412 nM; in test [2] it was 81.2 nM.

For the compound `OC(c1c(C2CC2)sc2cncn12)C1CCCC1` (racemic) [Example 46, rac-Cyclopentyl-(2-cyclopropyl-imidazo[5,1-b]thiazol-3-yl)-methanol], the IC50 was 473 nM in test [1] and 11.4 nM in test [2].

`CC(C)C1(C)CCC(C(O)c2c(C3CC3)sc3cncn23)C1` (stereo not drawn) [Example 136, (2-Cyclopropyl-imidazo[5,1-b]thiazol-3-yl)-(3-isopropyl-3-methyl-cyclopentyl)-methanol]: the half-maximal inhibitory concentration (IC50) is 579 nM in test [1] and 33.2 nM in test [2].

On to `CCc1sc2cncn2c1C(O)C1CC(C)(C)C1` (racemic) [Example 180, rac-(3,3-Dimethyl-cyclobutyl)-(2-ethyl-imidazo[5,1-b]thiazol-3-yl)-methanol], for which the figures for the concentration for half-maximal inhibition (IC50) in test [1] and in test [2] were 72.9 nM and 6.65 nM, respectively.

For the compound `Cc1sc2cncn2c1C(O)[C@H]1C[C@@H]1c1ccccc1` (single isomer, unassigned) [Example 168, rac-(R*)-(2-Methyl-imidazo[5,1-b]thiazol-3-yl)-((1S*,2S*)-2-phenyl-cyclopropyl)-methanol], the half-maximal inhibitory concentration (IC50) in test [1] turned out to be 2710 nM; in test [2], 123 nM.

For `CC1(C)CCC(C(O)c2c(C3CC3)sc3cncn23)C1` (stereo not drawn) [Example 47, (2-Cyclopropyl-imidazo[5,1-b]thiazol-3-yl)-(3,3-dimethyl-cyclopentyl)-methanol], the values for the IC50 in test [1] and in test [2] were 287 nM and 18.8 nM, respectively.
